# Target: T1, BiGalHexNAcP (Bifidobacterium longum, UniProt A0ACD7UTG9)
# T1 construct: gene BLIJ_2251
# Assay: one-pot two-enzyme synthesis of disaccharide (reverse phosphorolysis)
# Assay type: biochemical
# Settings: acceptor; donor galactose 1-phosphate formed in situ by BiGalK; isolated on semi-preparative scale
# T1 sequence (A0ACD7UTG9 entry or part of it): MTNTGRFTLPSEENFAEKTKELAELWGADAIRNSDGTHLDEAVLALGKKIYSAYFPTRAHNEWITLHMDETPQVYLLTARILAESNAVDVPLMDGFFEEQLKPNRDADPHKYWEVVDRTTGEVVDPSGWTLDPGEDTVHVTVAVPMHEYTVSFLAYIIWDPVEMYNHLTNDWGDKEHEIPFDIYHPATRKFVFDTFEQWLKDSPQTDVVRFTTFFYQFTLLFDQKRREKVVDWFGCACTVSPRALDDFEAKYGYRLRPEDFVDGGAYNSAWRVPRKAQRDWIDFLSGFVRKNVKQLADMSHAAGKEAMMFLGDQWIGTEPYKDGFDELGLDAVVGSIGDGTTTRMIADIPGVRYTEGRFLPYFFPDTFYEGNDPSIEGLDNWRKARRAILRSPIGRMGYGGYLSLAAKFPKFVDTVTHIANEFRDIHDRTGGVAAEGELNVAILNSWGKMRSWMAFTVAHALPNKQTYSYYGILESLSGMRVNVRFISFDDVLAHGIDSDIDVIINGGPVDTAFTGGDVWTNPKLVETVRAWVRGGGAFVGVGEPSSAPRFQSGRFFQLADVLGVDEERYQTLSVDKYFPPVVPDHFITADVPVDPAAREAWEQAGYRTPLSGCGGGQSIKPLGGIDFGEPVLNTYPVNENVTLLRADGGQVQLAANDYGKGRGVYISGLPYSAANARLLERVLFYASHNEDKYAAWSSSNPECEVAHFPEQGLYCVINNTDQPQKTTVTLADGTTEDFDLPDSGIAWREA
smiles,measurement,value
CC(=O)N[C@H]1[C@H](OCCCN=[N+]=[N-])O[C@H](CO)[C@@H](O)[C@@H]1O[C@@H]1O[C@H](CO)[C@H](O)[C@H](O)[C@H]1O [compound 15],one-pot two-enzyme synthesis of disaccharide (reverse phosphorolysis),Lacto-N-biose and fluorinated derivatives were efficiently synthesized on semi-preparative scale

# Reference: publication PMC8179109, “Introducing affinity and selectivity into galectin-targeting nanoparticles with fluorinated glycan ligands” (Chemical Science, 2020)
